This is an account of results in US20260166128A1, “HUMAN AMYLIN ANALOG, AND DERIVATIVE THEREOF AND USE THEREOF” (priority 2022, published 2026).

pEC50: −log10 of the molar value. Numbered stars: 1 amine (or outer) side, 2 acyl side, 3 side chain; on linkers, the order of the positions; unused ones are H or OH. Bridge positions count the residues as written; N and C are the ends. Square brackets hold non-standard residues; d marks the D form. Side chains are listed from the residue outwards. Peptide text beside a SMILES is read from it. * marks the point of attachment. C20 diacid = O=C(O)CCCCCCCCCCCCCCCCCCC(=O)*; C18 diacid = O=C(O)CCCCCCCCCCCCCCCCC(=O)*; γGlu = O=C(O)[C@H](CCC(=O)[*:2])N[*:1]; cisHyp = O=C(O)[C@@H]1C[C@H](O)CN1; Hyp = O=C(O)[C@@H]1C[C@@H](O)CN1; AEEA = NCCOCCOCC(=O)O

The test addresses T1, human amylin receptor (Homo sapiens, UniProt O60896+P30988).
T1 construct: host or cells: CHO-K1/Ga15/AMY3 cells, further stably transfected with a CRE-luciferase plasmid
T1 sequence (P30988 25-474): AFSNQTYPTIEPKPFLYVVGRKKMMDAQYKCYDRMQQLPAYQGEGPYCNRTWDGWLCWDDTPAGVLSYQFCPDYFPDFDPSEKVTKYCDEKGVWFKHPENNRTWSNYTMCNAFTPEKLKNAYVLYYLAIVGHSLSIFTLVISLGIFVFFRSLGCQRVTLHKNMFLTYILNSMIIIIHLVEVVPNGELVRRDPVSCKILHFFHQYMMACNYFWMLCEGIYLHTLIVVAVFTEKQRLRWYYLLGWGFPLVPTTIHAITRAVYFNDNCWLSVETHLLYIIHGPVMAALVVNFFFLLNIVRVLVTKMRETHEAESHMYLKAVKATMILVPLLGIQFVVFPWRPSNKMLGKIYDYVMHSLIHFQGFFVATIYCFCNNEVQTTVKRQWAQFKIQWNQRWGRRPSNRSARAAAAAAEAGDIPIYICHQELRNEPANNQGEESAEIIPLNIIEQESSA
T1 sequence (O60896 24-148 partner): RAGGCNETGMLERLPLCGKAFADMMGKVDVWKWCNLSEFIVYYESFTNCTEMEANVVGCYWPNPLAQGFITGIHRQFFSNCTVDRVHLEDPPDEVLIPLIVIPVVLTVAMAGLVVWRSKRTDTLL
Briefly: Luciferase assay of amylin derivatives in amylin receptor/CRE-luc CHO cell line. It is filed as cell-based. The following applies: CHO-K1/Ga15/AMY3 CRE-luc cells, 24 hours incubation, F12 medium containing 10% FBS; read-out: EC50.
Procedure: The experiment was intended to detect the activity or efficacy of the amylin derivatives on a human amylin receptor in vitro by luciferase assay.
50 μL of growth medium (F12 medium containing 10% FBS) was added into each well of a white 96-well plate, and the stably transfected amylin/CRE-lue CHO cells were inoculated into the white 96-well plate at a density of about 20,000 cells/well for activity determination.
For orientation: pEC50 means −log10 of the EC50, conventionally taken in molar units. In the case of `CC[C@H](C)[C@H](NC(=O)[C@@H]1CCCN1C(=O)CNC(=O)[C@H](CCCCNC(=O)CC[C@H](NC(=O)CCCCCCCCCCCCCCCCC(=O)O)C(=O)O)NC(=O)[C@H](CC(N)=O)NC(=O)[C@H](CC(N)=O)NC(=O)[C@H](CO)NC(=O)[C@H](CO)NC(=O)[C@H](Cc1c[nH]cn1)NC(=O)[C@H](CCCNC(=N)N)NC(=O)[C@H](CC(C)C)NC(=O)[C@H](Cc1ccccc1)NC(=O)[C@H](CC(=O)O)NC(=O)[C@H](C)NC(=O)[C@H](CC(C)C)NC(=O)[C@H](CCCNC(=N)N)NC(=O)[C@H](CCC(N)=O)NC(=O)[C@@H](NC(=O)[C@H](C)NC(=O)[C@@H]1CSSC[C@H](NC(=O)[C@@H](N)CCCNC(=N)N)C(=O)N[C@@H](CC(N)=O)C(=O)N[C@@H]([C@@H](C)O)C(=O)N[C@@H](C)C(=O)N[C@@H]([C@@H](C)O)C(=O)N1)[C@@H](C)O)C(=O)N[C@@H](CC(C)C)C(=O)N1CCC[C@H]1C(=O)N1CCC[C@H]1C(=O)N[C@H](C(=O)N[C@@H](CC(N)=O)C(=O)N[C@H](C(=O)NCC(=O)N[C@@H](CO)C(=O)N[C@@H](CC(N)=O)C(=O)N[C@H](C(=O)N1C[C@H](O)C[C@H]1C(N)=O)[C@@H](C)O)C(C)C)[C@@H](C)O` [PD084] (H-RCNTATCATQRLADFLRHSSNNK([γGlu-C18 diacid])GPILPPTNVGSNT[Hyp]-NH2; disulfide 2-7 (inferred); N-terminus assumed), the pEC50 was 11.10.

As for `CC[C@H](C)[C@H](NC(=O)[C@@H]1CCCN1C(=O)[C@H](CCCCNC(=O)CC[C@H](NC(=O)CCCCCCCCCCCCCCCCCCC(=O)O)C(=O)O)NC(=O)[C@H](CC(C)C)NC(=O)[C@H](CC(N)=O)NC(=O)[C@H](CC(N)=O)NC(=O)[C@H](CO)NC(=O)[C@H](CO)NC(=O)[C@H](Cc1c[nH]cn1)NC(=O)[C@H](CCCNC(=N)N)NC(=O)[C@H](CC(C)C)NC(=O)[C@H](Cc1ccccc1)NC(=O)[C@H](CC(=O)O)NC(=O)[C@H](C)NC(=O)[C@H](CC(C)C)NC(=O)[C@H](CCCNC(=N)N)NC(=O)[C@H](CCC(N)=O)NC(=O)[C@@H](NC(=O)[C@H](C)NC(=O)[C@@H]1CSSC[C@H](N)C(=O)N[C@@H](CC(N)=O)C(=O)N[C@@H]([C@@H](C)O)C(=O)N[C@@H](C)C(=O)N[C@@H]([C@@H](C)O)C(=O)N1)[C@@H](C)O)C(=O)N[C@@H](CC(C)C)C(=O)N1CCC[C@H]1C(=O)N1CCC[C@H]1C(=O)N[C@H](C(=O)N[C@@H](CC(N)=O)C(=O)N[C@H](C(=O)NCC(=O)N[C@@H](CO)C(=O)N[C@@H](CC(N)=O)C(=O)N[C@H](C(=O)N1C[C@H](O)C[C@H]1C(N)=O)[C@@H](C)O)C(C)C)[C@@H](C)O` [PD054] (H-CNTATCATQRLADFLRHSSNNLK([γGlu-C20 diacid])PILPPTNVGSNT[Hyp]-NH2; disulfide 1-6), the negative-log EC50 (pEC50) was 10.31. On to `CC[C@H](C)[C@H](NC(=O)[C@@H]1CCCN1C(=O)[C@H](CCCCNC(=O)CC[C@H](NC(=O)CCCCCCCCCCCCCCCCCCC(=O)O)C(=O)O)NC(=O)[C@H](CC(C)C)NC(=O)[C@H](CC(N)=O)NC(=O)[C@H](CC(N)=O)NC(=O)[C@H](CO)NC(=O)[C@H](CO)NC(=O)[C@H](Cc1c[nH]cn1)NC(=O)[C@H](CCCNC(=N)N)NC(=O)[C@H](CC(C)C)NC(=O)[C@H](Cc1ccccc1)NC(=O)[C@H](CC(=O)O)NC(=O)[C@H](C)NC(=O)[C@H](CC(C)C)NC(=O)[C@H](CCCNC(=N)N)NC(=O)[C@H](CCC(N)=O)NC(=O)[C@@H](NC(=O)[C@H](C)NC(=O)[C@@H]1CSSC[C@H](NC(=O)[C@@H](N)CCCNC(=N)N)C(=O)N[C@@H](CC(N)=O)C(=O)N[C@@H]([C@@H](C)O)C(=O)N[C@@H](C)C(=O)N[C@@H]([C@@H](C)O)C(=O)N1)[C@@H](C)O)C(=O)N[C@@H](CC(C)C)C(=O)N1CCC[C@H]1C(=O)N1CCC[C@H]1C(=O)N[C@H](C(=O)N[C@@H](CC(N)=O)C(=O)N[C@H](C(=O)NCC(=O)N[C@@H](CO)C(=O)N[C@@H](CC(N)=O)C(=O)N[C@H](C(=O)N1C[C@@H](O)C[C@H]1C(N)=O)[C@@H](C)O)C(C)C)[C@@H](C)O` [PD056] (H-RCNTATCATQRLADFLRHSSNNLK([γGlu-C20 diacid])PILPPTNVGSNT[cisHyp]-NH2; disulfide 2-7), for which the negative logarithm of the EC50 (pEC50) was 9.23.

As to `CC[C@H](C)[C@H](NC(=O)[C@@H]1CCCN1C(=O)[C@H](CCCCN)NC(=O)[C@H](CC(C)C)NC(=O)[C@H](CC(N)=O)NC(=O)[C@H](CC(N)=O)NC(=O)[C@H](CO)NC(=O)[C@H](CO)NC(=O)[C@H](Cc1c[nH]cn1)NC(=O)[C@H](CCCNC(=N)N)NC(=O)[C@H](CC(C)C)NC(=O)[C@H](Cc1ccccc1)NC(=O)[C@H](CC(=O)O)NC(=O)[C@H](C)NC(=O)[C@H](CC(C)C)NC(=O)[C@H](CCCNC(=N)N)NC(=O)[C@H](CCC(N)=O)NC(=O)[C@@H](NC(=O)[C@H](C)NC(=O)[C@@H]1CSSC[C@H](NC(=O)[C@H](CCCCN)NC(=O)CC[C@H](NC(=O)CCCCCCCCCCCCCCCCCCC(=O)O)C(=O)O)C(=O)N[C@@H](CC(N)=O)C(=O)N[C@@H]([C@@H](C)O)C(=O)N[C@@H](C)C(=O)N[C@@H]([C@@H](C)O)C(=O)N1)[C@@H](C)O)C(=O)N[C@@H](CC(C)C)C(=O)N1CCC[C@H]1C(=O)N1CCC[C@H]1C(=O)N[C@H](C(=O)N[C@@H](CC(N)=O)C(=O)N[C@H](C(=O)NCC(=O)N[C@@H](CO)C(=O)N[C@@H](CC(N)=O)C(=O)N[C@H](C(=O)N1C[C@H](O)C[C@H]1C(N)=O)[C@@H](C)O)C(C)C)[C@@H](C)O` [PD071] ({C20 diacid-γGlu}-KCNTATCATQRLADFLRHSSNNLKPILPPTNVGSNT[Hyp]-NH2; disulfide 2-7 (inferred)), the pEC50 was 10.55. As for `CC[C@H](C)[C@H](NC(=O)[C@@H]1CCCN1C(=O)[C@H](CCCCN)NC(=O)[C@H](CC(C)C)NC(=O)[C@H](CC(N)=O)NC(=O)[C@H](CC(N)=O)NC(=O)[C@H](CO)NC(=O)[C@H](CO)NC(=O)[C@H](Cc1c[nH]cn1)NC(=O)[C@H](CCCNC(=N)N)NC(=O)[C@H](CC(C)C)NC(=O)[C@H](Cc1ccccc1)NC(=O)[C@H](CC(=O)O)NC(=O)[C@H](C)NC(=O)[C@H](CC(C)C)NC(=O)[C@H](CCCNC(=N)N)NC(=O)[C@H](CCC(N)=O)NC(=O)[C@@H](NC(=O)[C@H](C)NC(=O)[C@@H]1CSSC[C@H](NC(=O)[C@H](CCCCN)NC(=O)CC[C@H](NC(=O)COCCOCCNC(=O)COCCOCCNC(=O)CCCCCCCCCCCCCCCCCCC(=O)O)C(=O)O)C(=O)N[C@@H](CC(N)=O)C(=O)N[C@@H]([C@@H](C)O)C(=O)N[C@@H](C)C(=O)N[C@@H]([C@@H](C)O)C(=O)N1)[C@@H](C)O)C(=O)N[C@@H](CC(C)C)C(=O)N1CCC[C@H]1C(=O)N1CCC[C@H]1C(=O)N[C@H](C(=O)N[C@@H](CC(N)=O)C(=O)N[C@H](C(=O)NCC(=O)N[C@@H](CO)C(=O)N[C@@H](CC(N)=O)C(=O)N[C@H](C(=O)N1CCC[C@H]1C(N)=O)[C@@H](C)O)C(C)C)[C@@H](C)O` [PD188] ({C20 diacid-AEEA-AEEA-γGlu}-KCNTATCATQRLADFLRHSSNNLKPILPPTNVGSNTP-NH2; disulfide 2-7 (inferred)), the negative logarithm of the EC50 (pEC50) was 10.60.
